# From US8440688B2, “Compounds, formulations and methods for reducing skin wrinkles, creasing and sagging” (Galderma Laboratories Inc., priority 2007, dated 2013)
# System: severe wrinkling on their face
# Experiment: Topical application of COL-118 to facial wrinkles (Example 18)
# Type: in vivo, human
# Conditions: middle-aged person, topical 0.2% COL-118
# Method: A middle-aged person has severe wrinkling on their face. They apply 0.2% COL-118 (an α2 adrenergic receptor agonist supplied by CollaGenex Pharmaceuticals, Inc., Newtown, Pa.). Wrinkling is noticeably diminished within 5 minutes by casual observation. After about 10 minutes, nearly all the wrinkles are gone. The effect lasts at least 8 hr.
smiles,measurement,value
Brc1c(NC2=NCCN2)ccc2nccnc12 [COL-118],Duration of the wrinkle-reducing effect,at least 8 hr
same,Time after which nearly all the wrinkles are gone,about 10 minutes
same,Time until wrinkling is noticeably diminished (casual observation),≤ 5 min
